Measured values taken from ChEMBL document CHEMBL1127810, “Synthesis of high specific activity [3H]-9-cis-retinoic acid and its application for identifying retinoids with unusual binding properties” (J Med Chem, 1994).

Key:
[1] = target: T1, Retinoic acid receptor alpha (Homo sapiens, UniProt P10276); assay: Binding affinity against retinoic Acid alpha receptor using [3H]- -9-cis-Retinoic Acid in competitive binding assay
T1 sequence (P10276 whole entry): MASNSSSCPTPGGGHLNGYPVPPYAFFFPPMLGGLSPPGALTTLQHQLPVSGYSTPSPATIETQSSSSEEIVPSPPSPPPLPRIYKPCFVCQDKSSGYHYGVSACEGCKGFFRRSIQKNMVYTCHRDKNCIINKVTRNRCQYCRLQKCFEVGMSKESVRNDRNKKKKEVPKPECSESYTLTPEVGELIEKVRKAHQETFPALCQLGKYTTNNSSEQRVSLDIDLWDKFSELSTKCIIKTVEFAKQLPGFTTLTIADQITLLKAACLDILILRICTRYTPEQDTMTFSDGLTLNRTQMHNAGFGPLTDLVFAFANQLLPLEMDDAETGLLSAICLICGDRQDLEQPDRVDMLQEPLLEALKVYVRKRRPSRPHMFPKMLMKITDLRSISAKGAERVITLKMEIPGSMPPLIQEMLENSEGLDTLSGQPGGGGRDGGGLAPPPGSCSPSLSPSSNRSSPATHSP

[2] = target: T2, Retinoic acid receptor RXR-gamma (Homo sapiens, UniProt P48443); assay: Binding affinity against retinoic Acid X gamma receptors co-transfected into CV-1 cells; type: cell-based
T2 sequence (P48443 whole entry): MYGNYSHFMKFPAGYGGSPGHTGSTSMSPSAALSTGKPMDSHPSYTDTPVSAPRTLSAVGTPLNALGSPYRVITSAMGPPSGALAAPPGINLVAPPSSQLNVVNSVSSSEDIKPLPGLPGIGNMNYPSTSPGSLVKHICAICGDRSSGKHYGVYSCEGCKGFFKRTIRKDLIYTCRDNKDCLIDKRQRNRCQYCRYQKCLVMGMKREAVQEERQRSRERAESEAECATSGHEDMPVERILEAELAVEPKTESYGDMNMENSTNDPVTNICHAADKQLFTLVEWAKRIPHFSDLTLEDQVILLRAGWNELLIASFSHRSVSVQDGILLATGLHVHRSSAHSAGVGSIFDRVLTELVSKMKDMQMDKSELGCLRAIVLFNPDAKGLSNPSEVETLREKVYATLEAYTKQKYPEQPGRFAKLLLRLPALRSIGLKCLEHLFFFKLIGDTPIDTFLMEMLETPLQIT

[3] = target: T3, Retinoic acid receptor beta (Homo sapiens, UniProt P10826); assay: Binding affinity against retinoic Acid beta receptor using [3H]- -9-cis-Retinoic Acid in competitive binding assay
T3 sequence (P10826 whole entry): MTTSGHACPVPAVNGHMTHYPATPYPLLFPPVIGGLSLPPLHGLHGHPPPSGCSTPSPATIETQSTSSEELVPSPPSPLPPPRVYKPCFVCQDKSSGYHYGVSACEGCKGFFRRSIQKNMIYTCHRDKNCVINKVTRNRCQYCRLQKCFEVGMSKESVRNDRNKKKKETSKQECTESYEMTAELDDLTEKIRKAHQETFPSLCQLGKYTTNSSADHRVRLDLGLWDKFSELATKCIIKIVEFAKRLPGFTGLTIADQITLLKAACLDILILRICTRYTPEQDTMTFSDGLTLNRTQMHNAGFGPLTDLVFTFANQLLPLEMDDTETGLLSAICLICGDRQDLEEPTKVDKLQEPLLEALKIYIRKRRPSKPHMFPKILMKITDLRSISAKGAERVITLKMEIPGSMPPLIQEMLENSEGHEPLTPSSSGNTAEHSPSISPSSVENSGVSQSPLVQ

[4] = target: T4, Retinoic acid receptor gamma (Homo sapiens, UniProt P13631)
T4 sequence (P13631 whole entry): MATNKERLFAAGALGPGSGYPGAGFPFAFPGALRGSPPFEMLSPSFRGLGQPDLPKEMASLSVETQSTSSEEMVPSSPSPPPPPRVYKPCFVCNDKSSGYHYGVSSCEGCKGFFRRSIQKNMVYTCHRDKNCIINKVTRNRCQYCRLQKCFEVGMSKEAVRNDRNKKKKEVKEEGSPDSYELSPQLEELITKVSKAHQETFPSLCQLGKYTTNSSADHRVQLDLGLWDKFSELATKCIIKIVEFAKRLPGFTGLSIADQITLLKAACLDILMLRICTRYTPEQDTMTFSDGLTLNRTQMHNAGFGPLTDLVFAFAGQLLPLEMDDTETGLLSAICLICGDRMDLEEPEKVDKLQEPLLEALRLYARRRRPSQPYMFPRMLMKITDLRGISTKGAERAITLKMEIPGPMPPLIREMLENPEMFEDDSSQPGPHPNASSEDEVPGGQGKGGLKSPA

[5] = target: T3, Retinoic acid receptor beta; assay: Binding affinity against retinoic Acid beta receptors co-transfected into CV-1 cells; type: cell-based
[6] = target: T1, Retinoic acid receptor alpha; assay: Binding affinity against retinoic Acid alpha receptors co-transfected into CV-1 cells; type: cell-based
[7] = target: T4, Retinoic acid receptor gamma; remark: listed apart in the source
Description: Binding affinity against retinoic Acid gamma receptors co-transfected into CV-1 cells

[8] = target: T5, Retinoic acid receptor RXR-beta (Homo sapiens, UniProt P28702); assay: Binding affinity against retinoic Acid X beta receptor using [3H]- -9-cis-Retinoic Acid in competitive binding assay
T5 sequence (P28702 whole entry): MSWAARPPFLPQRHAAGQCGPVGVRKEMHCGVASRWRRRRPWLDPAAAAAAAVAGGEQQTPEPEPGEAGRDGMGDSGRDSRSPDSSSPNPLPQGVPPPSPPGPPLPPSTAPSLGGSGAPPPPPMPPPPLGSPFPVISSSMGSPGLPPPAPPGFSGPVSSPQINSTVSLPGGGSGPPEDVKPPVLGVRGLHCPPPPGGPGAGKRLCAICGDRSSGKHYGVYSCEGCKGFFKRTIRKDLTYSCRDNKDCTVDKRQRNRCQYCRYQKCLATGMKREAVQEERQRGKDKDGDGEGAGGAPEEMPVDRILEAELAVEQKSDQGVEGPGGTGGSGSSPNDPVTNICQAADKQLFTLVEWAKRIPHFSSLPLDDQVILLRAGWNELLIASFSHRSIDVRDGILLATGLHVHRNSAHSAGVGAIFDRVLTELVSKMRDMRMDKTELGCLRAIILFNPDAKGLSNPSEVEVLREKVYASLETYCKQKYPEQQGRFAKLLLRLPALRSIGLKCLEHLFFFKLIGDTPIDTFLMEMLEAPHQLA

[9] = target: T5, Retinoic acid receptor RXR-beta; assay: Binding affinity against retinoic Acid X beta receptors co-transfected into CV-1 cells; type: cell-based
[10] = target: T6, Retinoic acid receptor RXR-alpha (Homo sapiens, UniProt P19793); assay: Binding affinity against retinoic Acid X alpha receptor using [3H]- -9-cis-Retinoic Acid in competitive binding assay
T6 sequence (P19793 whole entry): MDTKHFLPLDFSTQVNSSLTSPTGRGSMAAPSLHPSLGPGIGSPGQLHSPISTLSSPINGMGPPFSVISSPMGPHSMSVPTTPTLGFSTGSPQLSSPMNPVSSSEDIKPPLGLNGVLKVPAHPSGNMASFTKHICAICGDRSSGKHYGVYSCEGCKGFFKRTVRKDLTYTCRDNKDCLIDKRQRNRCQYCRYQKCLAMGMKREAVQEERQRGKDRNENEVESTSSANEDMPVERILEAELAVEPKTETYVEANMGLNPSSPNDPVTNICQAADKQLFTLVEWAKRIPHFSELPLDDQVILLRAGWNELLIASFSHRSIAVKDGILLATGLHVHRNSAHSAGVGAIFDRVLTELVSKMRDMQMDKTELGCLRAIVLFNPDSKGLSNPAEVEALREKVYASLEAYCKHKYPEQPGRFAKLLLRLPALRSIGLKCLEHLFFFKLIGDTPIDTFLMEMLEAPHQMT

[11] = target: T2, Retinoic acid receptor RXR-gamma; assay: Binding affinity against retinoic Acid X gamma receptor using [3H]- -9-cis-Retinoic Acid in competitive binding assay
[12] = target: T6, Retinoic acid receptor RXR-alpha; assay: Binding affinity against retinoic Acid X alpha receptors co-transfected into CV-1 cells; type: cell-based

SMILES	IC50 [1] [nM]	EC50 [2] [nM]	IC50 [3] [nM]	IC50 [4] [nM]	EC50 [5] [nM]	EC50 [6] [nM]	EC50 [7] [nM]	IC50 [8] [nM]	EC50 [9] [nM]	IC50 [10] [nM]	IC50 [11] [nM]	EC50 [12] [nM]
C/C(=C\c1ccc(C(=O)O)cc1)c1cc2c(cc1C)C(C)(C)CCC2(C)C	638	1500	1170	645	230	340	180	> 1000	1170	32	100	1200
C/C(=C\c1ccc(C(=O)O)cc1)c1cc2c(cc1C(C)C)C(C)(C)CCC2(C)C	> 1000	2700	150	> 1000	> 10000	> 10000	270	50	> 10000	320	10	300
C/C(=C\c1ccc(C(=O)O)cc1)c1ccc2c(c1)C(C)(C)CCC2(C)C		> 10000						> 1000	> 10000	> 1000	> 1000	> 10000
CCc1cc2c(cc1/C(C)=C/c1ccc(C(=O)O)cc1)C(C)(C)CCC2(C)C	100	2600	75	250	310	1700	23	50	2000	320	10	2900
